From patent US6471976B1, “Copper complex bactericide/fungicide and method of making same” (priority 1990, dated 2002)

Tested on: Colletotrichum lagenarium
Assay: Efficacy against Colletotrichum lagenarium on cucumber plants
Details: in vivo

Structure (SMILES): [Cu] [copper]
- estimated LD90 rate for the control of Colletotrichum lagenarium on cucumber plants: 200 ppm
